Test results reported in ChEMBL document CHEMBL4138123, “Design, synthesis and biological evaluation of novel pyrazolochalcones as potential modulators of PI3K/Akt/mTOR pathway and inducers of apoptosis in breast cancer cells” (Eur J Med Chem, 2017).

Legend:
Format in all cases: functional
NCI-H23 [1] = experiment: Cytotoxicity against human NCI-H23 cells assessed as cell growth at 10 uM after 48 hrs by sulforhodamine B assay relative to control; conditions: NCI-H23, 48 h, read-out: Activity
786-0 [2] = experiment: Cytotoxicity against human 786-0 cells assessed as cell growth at 10 uM after 48 hrs by sulforhodamine B assay relative to control; conditions: 786-0, 48 h, read-out: Activity
SF-539 = experiment: Cytotoxicity against human SF539 cells assessed as cell growth at 100 uM after 48 hrs by sulforhodamine B assay relative to control; conditions: SF-539, 48 h, read-out: Activity
Hs-578T = experiment: Cytotoxicity against human Hs 578T cells assessed as cell growth at 0.1 uM after 48 hrs by sulforhodamine B assay relative to control; conditions: read-out: Activity
A498 = experiment: Cytotoxicity against human A498 cells assessed as cell growth at 1 uM after 48 hrs by sulforhodamine B assay relative to control; conditions: A498, 48 h, read-out: Activity
OVCAR-4 = experiment: Cytotoxicity against human OVCAR4 cells assessed as growth inhibition after 48 hrs by sulforhodamine B assay; conditions: OVCAR-4, 48 h
OVCAR-3 = experiment: Cytotoxicity against human OVCAR3 cells assessed as cell growth at 1 uM after 48 hrs by sulforhodamine B assay relative to control; conditions: OVCAR-3, 48 h, read-out: Activity
K562 = experiment: Cytotoxicity against human K562 cells assessed as cell growth at 0.1 uM after 48 hrs by sulforhodamine B assay relative to control; conditions: K562, 48 h, read-out: Activity
SNB-19 = experiment: Cytotoxicity against human SNB19 cells assessed as cell growth at 1 uM after 48 hrs by sulforhodamine B assay relative to control; conditions: SNB-19, 48 h, read-out: Activity
UO-31 = experiment: Cytotoxicity against human UO31 cells assessed as cell growth at 100 uM after 48 hrs by sulforhodamine B assay relative to control; conditions: UO-31, 48 h, read-out: Activity
A549 = experiment: Cytotoxicity against human A549/ATCC cells assessed as cell growth at 0.1 uM after 48 hrs by sulforhodamine B assay relative to control; conditions: A549, 48 h, read-out: Activity
786-0 [3] = experiment: Cytotoxicity against human 786-0 cells assessed as growth inhibition after 48 hrs by sulforhodamine B assay; conditions: 786-0, 48 h
SK-OV-3 [4] = experiment: Cytotoxicity against human SKOV3 cells assessed as cell growth at 100 uM after 48 hrs by sulforhodamine B assay relative to control; conditions: SK-OV-3, 48 h, read-out: Activity
PC-3 = experiment: Cytotoxicity against human PC3 cells assessed as cell growth at 100 uM after 48 hrs by sulforhodamine B assay relative to control; conditions: PC-3, 48 h, read-out: Activity
HL-60(TB) = experiment: Cytotoxicity against human HL-60(TB) cells assessed as cell growth at 0.1 uM after 48 hrs by sulforhodamine B assay relative to control; conditions: HL-60, 48 h, read-out: Activity
MOLT-4 = experiment: Cytotoxicity against human MOLT4 cells assessed as cell growth at 1 uM after 48 hrs by sulforhodamine B assay relative to control; conditions: MOLT-4, 48 h, read-out: Activity
MDA-MB-231 [5] = experiment: Cytotoxicity against human MDA-MB-231 cells assessed as cell growth at 1 uM after 48 hrs by sulforhodamine B assay relative to control; conditions: MDA-MB-231, 48 h, read-out: Activity
M14 = experiment: Cytotoxicity against human M14 cells assessed as cell growth at 0.1 uM after 48 hrs by sulforhodamine B assay relative to control; conditions: M14, 48 h, read-out: Activity
Malme-3M = experiment: Cytotoxicity against human MALME-3M cells assessed as growth inhibition after 48 hrs by sulforhodamine B assay
HCT-15 = experiment: Cytotoxicity against human HCT15 cells assessed as cell growth at 1 uM after 48 hrs by sulforhodamine B assay relative to control; conditions: HCT-15, 48 h, read-out: Activity
MCF7 [6] = experiment: Cytotoxicity against human MCF7 cells assessed as cell growth at 0.1 uM after 48 hrs by sulforhodamine B assay relative to control; conditions: MCF7, 48 h, read-out: Activity
MCF7 [7] = experiment: Cytotoxicity against human MCF7 cells assessed as cell growth at 1 uM after 48 hrs by sulforhodamine B assay relative to control; conditions: MCF7, 48 h, read-out: Activity
IGROV-1 = experiment: Cytotoxicity against human IGROV1 cells assessed as cell growth at 0.01 uM after 48 hrs by sulforhodamine B assay relative to control; conditions: IGROV-1, 48 h, read-out: Activity
UACC-257 = experiment: Cytotoxicity against human UACC257 cells assessed as cell growth at 0.01 uM after 48 hrs by sulforhodamine B assay relative to control; conditions: UACC-257, 48 h, read-out: Activity
SK-OV-3 [8] = experiment: Cytotoxicity against human SKOV3 cells assessed as growth inhibition after 48 hrs by sulforhodamine B assay; conditions: SK-OV-3, 48 h
MCF7 [9] = experiment: Cytotoxicity against human MCF7 cells assessed as cell growth at 10 uM after 48 hrs by sulforhodamine B assay relative to control; conditions: MCF7, 48 h, read-out: Activity
MDA-MB-231 [10] = experiment: Cytotoxicity against human MDA-MB-231 cells assessed as growth inhibition after 48 hrs by sulforhodamine B assay; conditions: MDA-MB-231, 48 h
HCC 2998 = experiment: Cytotoxicity against human HCC2998 cells assessed as cell growth at 10 uM after 48 hrs by sulforhodamine B assay relative to control; conditions: HCC 2998, 48 h, read-out: Activity
UACC-62 = experiment: Cytotoxicity against human UACC62 cells assessed as cell growth at 10 uM after 48 hrs by sulforhodamine B assay relative to control; conditions: UACC-62, 48 h, read-out: Activity
NCI-H23 [11] = experiment: Cytotoxicity against human NCI-H23 cells assessed as cell growth at 100 uM after 48 hrs by sulforhodamine B assay relative to control; conditions: NCI-H23, 48 h, read-out: Activity
NCI-H322M = experiment: Cytotoxicity against human NCI-H322M cells assessed as cell growth at 0.01 uM after 48 hrs by sulforhodamine B assay relative to control; conditions: read-out: Activity
TK-10 = experiment: Cytotoxicity against human TK10 cells assessed as cell growth at 10 uM after 48 hrs by sulforhodamine B assay relative to control; conditions: TK-10, 48 h, read-out: Activity
RXF 393 = experiment: Cytotoxicity against human RXF393 cells assessed as cell growth at 1 uM after 48 hrs by sulforhodamine B assay relative to control; conditions: RXF 393, 48 h, read-out: Activity
SF-268 = experiment: Cytotoxicity against human SF268 cells assessed as cell growth at 100 uM after 48 hrs by sulforhodamine B assay relative to control; conditions: SF-268, 48 h, read-out: Activity
NCI-H522 = experiment: Cytotoxicity against human NCI-H522 cells assessed as cell growth at 0.1 uM after 48 hrs by sulforhodamine B assay relative to control; conditions: NCI-H522, 48 h, read-out: Activity

COc1ccc(-c2cc(/C=C/C(=O)c3ccc(N)cc3)[nH]n2)cc1
growth at 10 µM (NCI-H23 [1]): 8%
growth at 10 µM (786-0 [2]): -29%
growth at 100 µM (SF-539): -94%
growth at 0.1 µM (Hs-578T): 97%
growth at 1 µM (A498): 90%
GI50 (OVCAR-4): 1.08 µM
LC50 (OVCAR-4): 51.2 µM
TGI (OVCAR-4): 8.01 µM
growth at 1 µM (OVCAR-3): 63%
growth at 0.1 µM (K562): 95%
growth at 1 µM (SNB-19): 75%
growth at 100 µM (UO-31): -87%
growth at 0.1 µM (A549): 98%
GI50 (786-0 [3]): 2.12 µM
LC50 (786-0 [3]): 58.1 µM
TGI (786-0 [3]): 5.69 µM
growth at 100 µM (SK-OV-3 [4]): -68%
growth at 100 µM (PC-3): -83%
growth at 0.1 µM (HL-60(TB)): 97%
growth at 1 µM (MOLT-4): 80%
growth at 1 µM (MDA-MB-231 [5]): 78%
growth at 0.1 µM (M14): 103%
GI50 (Malme-3M): 2.18 µM
LC50 (Malme-3M): 28.8 µM
TGI (Malme-3M): 6.22 µM
growth at 1 µM (HCT-15): 50%
growth at 0.1 µM (MCF7 [6]): 94%
growth at 1 µM (MCF7 [7]): 42%
growth at 0.01 µM (IGROV-1): 98%
growth at 0.01 µM (UACC-257): 96%
GI50 (SK-OV-3 [8]): 4.72 µM
LC50 (SK-OV-3 [8]): 63.6 µM
TGI (SK-OV-3 [8]): 18 µM
growth at 10 µM (MCF7 [9]): -30%
GI50 (MDA-MB-231 [10]): 2.14 µM
LC50 (MDA-MB-231 [10]): 55.5 µM
TGI (MDA-MB-231 [10]): 8.29 µM
growth at 10 µM (HCC 2998): -90%
growth at 10 µM (UACC-62): -89%
growth at 100 µM (NCI-H23 [11]): -62%
growth at 0.01 µM (NCI-H322M): 95%
growth at 10 µM (TK-10): 12%
growth at 1 µM (RXF 393): 78%
growth at 100 µM (SF-268): -61%
growth at 0.1 µM (NCI-H522): 85%

COc1cc(-c2cc(/C=C/C(=O)c3ccc4c(c3)OCO4)[nH]n2)cc(OC)c1OC
growth at 10 µM (NCI-H23 [1]): 63%
growth at 10 µM (786-0 [2]): -30%
growth at 100 µM (SF-539): -83%
growth at 0.1 µM (Hs-578T): 98%
growth at 1 µM (A498): 83%
LC50 (OVCAR-4): > 100 µM
TGI (OVCAR-4): > 100 µM
growth at 1 µM (OVCAR-3): 102%
growth at 0.1 µM (K562): 102%
growth at 1 µM (SNB-19): 84%
growth at 100 µM (UO-31): -79%
growth at 0.1 µM (A549): 98%
LC50 (786-0 [3]): > 100 µM
TGI (786-0 [3]): 5.82 µM
growth at 100 µM (SK-OV-3 [4]): -47%
growth at 100 µM (PC-3): -38%
growth at 0.1 µM (HL-60(TB)): 95%
growth at 1 µM (MOLT-4): 99%
growth at 1 µM (MDA-MB-231 [5]): 86%
growth at 0.1 µM (M14): 97%
LC50 (Malme-3M): 84.5 µM
TGI (Malme-3M): 20.8 µM
growth at 1 µM (HCT-15): 81%
growth at 0.1 µM (MCF7 [6]): 94%
growth at 1 µM (MCF7 [7]): 65%
growth at 0.01 µM (IGROV-1): 98%
growth at 0.01 µM (UACC-257): 86%
LC50 (SK-OV-3 [8]): > 100 µM
TGI (SK-OV-3 [8]): 26.1 µM
growth at 10 µM (MCF7 [9]): -1%
LC50 (MDA-MB-231 [10]): > 100 µM
TGI (MDA-MB-231 [10]): > 100 µM
growth at 10 µM (HCC 2998): -87%
growth at 10 µM (UACC-62): 26%
growth at 100 µM (NCI-H23 [11]): 20%
growth at 0.01 µM (NCI-H322M): 94%
growth at 10 µM (TK-10): -31%
growth at 1 µM (RXF 393): 80%
growth at 100 µM (SF-268): -26%
growth at 0.1 µM (NCI-H522): 92%

COc1cc2c(cc1OC)C(=O)/C(=C/c1cc(-c3ccc4c(c3)OCO4)n[nH]1)C2
growth at 10 µM (NCI-H23 [1]): -63%
growth at 10 µM (786-0 [2]): -98%
growth at 100 µM (SF-539): -94%
growth at 0.1 µM (Hs-578T): 99%
growth at 1 µM (A498): 69%
GI50 (OVCAR-4): 1.11 µM
LC50 (OVCAR-4): 5 µM
TGI (OVCAR-4): 2.36 µM
growth at 1 µM (OVCAR-3): 75%
growth at 0.1 µM (K562): 94%
growth at 1 µM (SNB-19): 84%
growth at 100 µM (UO-31): -95%
growth at 0.1 µM (A549): 99%
GI50 (786-0 [3]): 1.61 µM
LC50 (786-0 [3]): 5.54 µM
TGI (786-0 [3]): 2.99 µM
growth at 100 µM (SK-OV-3 [4]): -97%
growth at 100 µM (PC-3): -79%
growth at 0.1 µM (HL-60(TB)): 95%
growth at 1 µM (MOLT-4): 97%
growth at 1 µM (MDA-MB-231 [5]): 88%
growth at 0.1 µM (M14): 96%
GI50 (Malme-3M): 1.74 µM
LC50 (Malme-3M): 7.43 µM
TGI (Malme-3M): 3.6 µM
growth at 1 µM (HCT-15): 56%
growth at 0.1 µM (MCF7 [6]): 89%
growth at 1 µM (MCF7 [7]): 15%
growth at 0.01 µM (IGROV-1): 100%
growth at 0.01 µM (UACC-257): 93%
GI50 (SK-OV-3 [8]): 2.89 µM
LC50 (SK-OV-3 [8]): 25.2 µM
TGI (SK-OV-3 [8]): 7.16 µM
growth at 10 µM (MCF7 [9]): -84%
GI50 (MDA-MB-231 [10]): 1.66 µM
LC50 (MDA-MB-231 [10]): 6.18 µM
TGI (MDA-MB-231 [10]): 3.2 µM
growth at 10 µM (HCC 2998): -88%
growth at 10 µM (UACC-62): -96%
growth at 100 µM (NCI-H23 [11]): -78%
growth at 0.01 µM (NCI-H322M): 102%
growth at 10 µM (TK-10): -95%
growth at 1 µM (RXF 393): 80%
growth at 100 µM (SF-268): -73%
growth at 0.1 µM (NCI-H522): 89%
